Results taken from patent US20230203099A1, “CYCLOPHILIN INHIBITORS AND USES THEREOF” (priority 2020, published 2023).
pEC50, pIC50, pKi: −log10 of the molar value. Where two headings read alike, the source gives them in different places.

What was measured:
[1] = test system: permeabilized HepG2; test: Calcium retention capacity (CRC) assay in permeabilized HepG2; type: cell-based; settings: Homo sapiens; for pEC50: permeabilized HepG2, Calcium Green 5N, read-out: Calcium Retention Capacity EC50
[2] = target: recombinant Calcineurin (CaN) (Homo sapiens, UniProt P63098+Q08209); test: Calcineurin phosphatase inhibition assay without cyclophilin A; type: biochemical; settings: for IC50: without cyclophilin A, RII phosphopeptide substrate, read-out: Calcineurin Inhibition (IC50, nM) −CypA
recombinant Calcineurin (CaN), sequence (P63098 whole entry, other chains not shown): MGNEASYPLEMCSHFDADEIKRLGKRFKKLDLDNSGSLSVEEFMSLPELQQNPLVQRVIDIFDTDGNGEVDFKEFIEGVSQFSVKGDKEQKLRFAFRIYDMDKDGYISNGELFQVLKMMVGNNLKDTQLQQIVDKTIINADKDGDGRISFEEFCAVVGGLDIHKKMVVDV

[3] = target: Human CypD (Homo sapiens, UniProt P30405); test: Cyclophilin peptidyl-prolyl isomerase functional assay (PPIase), cyclophilin D; type: biochemical; settings: for Ki: human recombinant enzyme, 10° C., read-out: Inhibition (Ki, nM) Human CypD
Human CypD, sequence (P30405 30-207): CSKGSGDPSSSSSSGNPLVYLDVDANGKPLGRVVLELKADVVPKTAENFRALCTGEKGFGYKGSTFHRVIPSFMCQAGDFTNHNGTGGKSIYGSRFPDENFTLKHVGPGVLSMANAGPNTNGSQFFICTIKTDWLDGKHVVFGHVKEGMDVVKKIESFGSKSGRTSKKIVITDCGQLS

[4] = target: Human CypA (Homo sapiens, UniProt P62937); test: Cyclophilin peptidyl-prolyl isomerase functional assay (PPIase), cyclophilin A; type: biochemical; settings: human recombinant enzyme, 10° C.; read-out: Inhibition (Ki, nM) Human CypA
Human CypA, sequence (P62937 whole entry): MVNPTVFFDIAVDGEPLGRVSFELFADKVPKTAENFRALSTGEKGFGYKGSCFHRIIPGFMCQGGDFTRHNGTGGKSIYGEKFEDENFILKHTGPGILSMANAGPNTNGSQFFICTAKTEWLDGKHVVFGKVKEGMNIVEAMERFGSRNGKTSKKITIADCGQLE

[5] = target: recombinant Calcineurin (CaN) + CypA (Homo sapiens, UniProt P62937+P63098+Q08209); test: Calcineurin phosphatase inhibition assay with cyclophilin A; type: biochemical; settings: RII phosphopeptide substrate
recombinant Calcineurin (CaN) + CypA, sequence (P62937 whole entry, other chains not shown): as the sequence (P62937 whole entry) above
recombinant Calcineurin (CaN) + CypA, sequence (P63098 whole entry, other chains not shown): as the sequence (P63098 whole entry, other chains not shown) above

Structure (SMILES)	pEC50 [1]	IC50 [2] [nM]	Ki [3] [nM]	Ki [4] [nM]	IC50 [5] [nM]	EC50 ([1]; HepG2, read-out: Calcium Retention Capacity EC50 (nM)) [nM]	pIC50 [2]	pKi [3]
CC[C@@H]1NC(=O)[C@H]([C@H](O)[C@H](C)C/C=C/c2ccc(C)cc2)N(C)C(=O)[C@H](C(C)C)N(C)C(=O)[C@H](CC(C)C)N(C)C(=O)[C@H](CC(C)C)N(C)C(=O)[C@@H](C)NC(=O)[C@H](C)NC(=O)[C@H](CC(C)C)N(C)C(=O)[C@H](C(C)C)NC(=O)[C@H](CC(C)C)N(C)C(=O)C(OCCN(C)C)N(C)C1=O (some centres unmarked) [Compound 2]						512	5.40	7.96
CC[C@@H]1NC(=O)[C@H]([C@H](O)[C@H](C)C/C=C/c2ccc(C(F)(F)F)cc2)N(C)C(=O)[C@H](C(C)C)N(C)C(=O)[C@H](CC(C)C)N(C)C(=O)[C@H](CC(C)C)N(C)C(=O)[C@@H](C)NC(=O)[C@H](C)NC(=O)[C@H](CC(C)C)N(C)C(=O)[C@H](C(C)C)NC(=O)[C@H](CC(C)C)N(C)C(=O)C(OCCN(C)C)N(C)C1=O (some centres unmarked) [Compound 3]	5.86	> 10000	9.4					

Second part, led by results:

pEC50 [1]	IC50 [2] [nM]	Ki [3] [nM]	Ki [4] [nM]	IC50 [5] [nM]	Structure (SMILES)	EC50 ([1]; HepG2, read-out: Calcium Retention Capacity EC50 (nM)) [nM]	pIC50 [2]	pKi [3]
6.06	1160	11			CC[C@@H]1NC(=O)[C@H]([C@H](O)[C@H](C)C/C=C/c2cccs2)N(C)C(=O)[C@H](C(C)C)N(C)C(=O)[C@H](CC(C)C)N(C)C(=O)[C@H](CC(C)C)N(C)C(=O)[C@@H](C)NC(=O)[C@H](C)NC(=O)[C@H](CC(C)C)N(C)C(=O)[C@H](C(C)C)NC(=O)[C@H](CC(C)C)N(C)C(=O)C(OCCN(C)C)N(C)C1=O (some centres unmarked) [Compound 4]			
6.21	2660	8.4	5.5	2430	CC[C@@H]1NC(=O)[C@H]([C@H](O)[C@H](C)C/C=C/c2ccc(OC)cc2)N(C)C(=O)[C@H](C(C)C)N(C)C(=O)[C@H](CC(C)C)N(C)C(=O)[C@H](CC(C)C)N(C)C(=O)[C@@H](C)NC(=O)[C@H](C)NC(=O)[C@H](CC(C)C)N(C)C(=O)[C@H](C(C)C)NC(=O)[C@H](CC(C)C)N(C)C(=O)C(OCCN(C)C)N(C)C1=O (some centres unmarked) [Compound 5]			
6.02	> 10000	6.5			CC[C@@H]1NC(=O)[C@H]([C@H](O)[C@H](C)C/C=C/c2ccc3ccccc3c2)N(C)C(=O)[C@H](C(C)C)N(C)C(=O)[C@H](CC(C)C)N(C)C(=O)[C@H](CC(C)C)N(C)C(=O)[C@@H](C)NC(=O)[C@H](C)NC(=O)[C@H](CC(C)C)N(C)C(=O)[C@H](C(C)C)NC(=O)[C@H](CC(C)C)N(C)C(=O)C(OCCN(C)C)N(C)C1=O (some centres unmarked) [Compound 6]			
